{"source": "ChEMBL document CHEMBL4480444", "about": "“Structural requirement of tunicamycin V for MraY inhibition” (Bioorg Med Chem, 2019)"}
{"molecular_target": "T1, Phospho-N-acetylmuramoyl-pentapeptide-transferase (Staphylococcus aureus, UniProt P0C1R8)", "T1 sequence (P0C1R8 whole entry)": "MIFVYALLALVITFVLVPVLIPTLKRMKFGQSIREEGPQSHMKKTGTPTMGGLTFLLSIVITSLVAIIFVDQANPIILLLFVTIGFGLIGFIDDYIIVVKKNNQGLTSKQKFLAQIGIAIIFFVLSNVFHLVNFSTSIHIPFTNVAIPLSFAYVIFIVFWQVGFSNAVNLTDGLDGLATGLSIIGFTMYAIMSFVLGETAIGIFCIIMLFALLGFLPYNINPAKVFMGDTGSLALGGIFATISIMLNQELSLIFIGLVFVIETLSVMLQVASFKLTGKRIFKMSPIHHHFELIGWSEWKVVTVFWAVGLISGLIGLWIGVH", "assay": "Inhibition of Staphylococcus aureus MraY assessed as reduction in dansylated lipid I formation using UDP-MurNAc-dansylpentapeptide incubated for 3 hrs by fluorescence assay", "units": {"IC50": "µM"}}
{"compound": "CC(C)CCCCCCCCC/C=C/C(=O)N[C@H]1C(O)O[C@H](C[C@@H](O)[C@H]2O[C@@H](n3ccc(=O)[nH]c3=O)[C@H](O)[C@@H]2O)[C@H](O)[C@@H]1O", "note": "(stereo not given in full)", "IC50": 36}
{"compound": "CC(=O)N[C@H]1[C@H](O[C@H]2O[C@H](CO)[C@@H](O)[C@H](O)[C@H]2NC(C)=O)O[C@H](C[C@@H](O)[C@H]2O[C@@H](n3ccc(=O)[nH]c3=O)[C@H](O)[C@@H]2O)[C@H](O)[C@@H]1O", "IC50": 36}
{"compound": "CC(=O)N[C@H]1[C@@H](O[C@@H]2O[C@H](CO)[C@H](O)[C@H](O)[C@H]2NC(=O)/C=C/CCCCCCCCCC(C)C)O[C@H](CO)[C@@H](O)[C@@H]1O", "IC50": "> 100"}
{"compound": "CC(=O)N[C@H]1[C@@H](O[C@@H]2O[C@H](C[C@@H](O)[C@H]3O[C@@H](n4ccc(=O)[nH]c4=O)[C@H](O)[C@@H]3O)[C@H](O)[C@H](O)[C@H]2NC(=O)/C=C/CCCCCCCCCC(C)C)O[C@H](CO)[C@@H](O)[C@@H]1O", "note": "(stereo in doubt; form 1)", "IC50": 0.25}
{"compound": "CC(=O)N[C@H]1[C@@H](O[C@@H]2O[C@H](C[C@@H](O)[C@H]3O[C@@H](n4ccc(=O)[nH]c4=O)[C@H](O)[C@@H]3O)[C@H](O)[C@H](O)[C@H]2NC(=O)/C=C/CCCCCCCCCC(C)C)O[C@H](CO)[C@@H](O)[C@@H]1O", "note": "(stereo in doubt; form 2)", "IC50": 0.35}
